From patent publication US20030190325A1, “Novel peroxiredoxin defense system from mycobacterium tuberculosis” (priority 2002, published 2003)
pIC50, pKi: −log10 of the molar value. Read-outs that look alike come from different tables or passages of the source.

What was measured:
[1] = target: T1, Lpd, SucB, AhpD (Mycobacterium tuberculosis, UniProt P9WHH9+P9WIS7+P9WQB5); test: DTNB screening assay (Lpd/SucB/AhpD protein mixture); assay type: biochemical; settings: for Target: which of the 3 enzymes (AhpD, Lpd, SucB) is inhibited, and mode of inhibition
T1 construct: Lpd and SucB ORFs were amplified by PCR from M. tuberculosis H37Rv genomic DNA; The AhpD open reading frame (ORF) was amplified by PCR with engineered 5′ NdeI and 3′ NheI sites and cloned into pET11c; made in house; host or cells: E. coli BL21(DE3), pET11c
T1 sequence (P9WHH9 1-464): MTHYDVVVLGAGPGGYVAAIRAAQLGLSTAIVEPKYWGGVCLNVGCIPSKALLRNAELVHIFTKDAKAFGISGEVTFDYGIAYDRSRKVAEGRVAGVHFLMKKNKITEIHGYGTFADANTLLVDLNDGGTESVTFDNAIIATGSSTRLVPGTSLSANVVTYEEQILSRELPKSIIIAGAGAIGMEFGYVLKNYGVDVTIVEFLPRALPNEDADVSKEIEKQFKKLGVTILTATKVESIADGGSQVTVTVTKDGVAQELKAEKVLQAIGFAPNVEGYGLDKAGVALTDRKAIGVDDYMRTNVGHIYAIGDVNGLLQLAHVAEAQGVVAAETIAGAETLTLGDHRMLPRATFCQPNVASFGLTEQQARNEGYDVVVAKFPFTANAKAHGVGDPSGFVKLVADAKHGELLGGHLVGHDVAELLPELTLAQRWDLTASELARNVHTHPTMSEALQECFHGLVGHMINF
T1 sequence (P9WIS7 1-553): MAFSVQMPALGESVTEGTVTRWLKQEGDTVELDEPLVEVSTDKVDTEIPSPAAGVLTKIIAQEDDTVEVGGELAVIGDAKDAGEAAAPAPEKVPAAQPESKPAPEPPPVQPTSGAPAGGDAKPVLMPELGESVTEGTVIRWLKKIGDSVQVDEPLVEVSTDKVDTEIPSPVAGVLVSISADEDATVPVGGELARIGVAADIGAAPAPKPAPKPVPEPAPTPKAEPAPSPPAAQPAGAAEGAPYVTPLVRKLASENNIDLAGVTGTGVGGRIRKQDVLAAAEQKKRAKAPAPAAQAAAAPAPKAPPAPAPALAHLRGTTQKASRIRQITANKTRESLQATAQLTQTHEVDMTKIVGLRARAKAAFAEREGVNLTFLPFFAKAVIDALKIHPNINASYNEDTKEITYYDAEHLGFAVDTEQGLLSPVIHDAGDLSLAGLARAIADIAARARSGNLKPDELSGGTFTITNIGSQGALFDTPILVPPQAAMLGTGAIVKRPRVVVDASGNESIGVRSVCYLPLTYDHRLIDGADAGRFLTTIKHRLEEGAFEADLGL
T1 sequence (P9WQB5 1-177): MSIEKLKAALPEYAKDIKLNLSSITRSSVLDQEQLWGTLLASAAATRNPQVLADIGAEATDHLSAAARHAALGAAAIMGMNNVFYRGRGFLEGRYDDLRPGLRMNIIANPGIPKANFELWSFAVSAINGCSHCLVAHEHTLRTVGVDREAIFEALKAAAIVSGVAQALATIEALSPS
Protocol: The screen was performed in Falcon Microtest 384-well 30 μl assay plates using the DTNB (5,5′-dithiobis-(2-nitrobenzoic acid)) assay.
The protein mixture (200 nM Lpd, 350 nM SucB, 36 nM AhpD) was dispensed into each well in 10 μl using a multi-channel pump dispenser. Compounds were added to the protein mix by a single dip (1 nl) with a pin-transfer robot. Plates with the protein mix and added compounds were incubated on a shaker for 30 min at room temperature. The concentration of compounds during incubation was 50 μM. Reaction mixture (200 μM NADH, 150 μM DTNB in 100 mM potassium phosphate, pH 7.0, 2 mM EDTA) was added to each well in 10 μl after pre-incubation and the plate was read at 405 nm for “time 0 min” values. Plates were incubated on a shaker for 30 min at room temperature to complete the reaction and were read at 405 nm for “time 30 min.” “Time 0 min” values were subtracted from “time 30 min” values and were taken as an end-point value for the assay. Control wells contained only protein and reaction mixtures without any compounds added and were taken as 100% activity values. The final concentrations of all components during the reaction were as follows: Lpd, 100 nM; SucB, 175 nM; AhpD, 18 nM; NADH, 100 μM; DTNB, 75 μM; potassium phosphate, 50 mM; EDTA, 1 mM; compounds, 25 μM.

[2] = target: T2, AhpD (Mycobacterium tuberculosis, UniProt P9WQB5); test: Inhibition constant for the enzyme identified as target: AhpD; assay type: biochemical
T2 construct: The AhpD open reading frame (ORF) was amplified by PCR with engineered 5′ NdeI and 3′ NheI sites and cloned into pET11c; made in house; host or cells: E. coli BL21(DE3), pET11c
T2 sequence (P9WQB5 1-177): T1 sequence (P9WQB5 1-177)

Structure (SMILES): Cc1cc(C)cc(/N=C2/NC(=O)/C(=C\c3cc(Br)c(O)c([N+](=O)O)c3)S2)c1 [2368-0687]
- pIC50 [1]: 4.98
- Target [1]: AhpD (Com- pet Inhib.)
- pKi [2]: 5.30

Structure (SMILES): O=C(O)CN1C(=O)/C(=C\c2ccc(-c3cccc(Cl)c3Cl)o2)SC1=S [3229-2113]
- pIC50 [1]: 5.09
- Target [1]: SucB (Com- pet Inhib.)

Structure (SMILES): O=C(O)CCN1C(=O)/C(=C\c2ccc(-c3cccc(C(F)(F)F)c3)o2)SC1=S [2556-0286]
- pIC50 [1]: 5.36
- Target [1]: SucB (Com- pet Inhib.)

Structure (SMILES): O=C(O)c1ccc(N2C(=O)/C(=C/c3ccc(-c4ccc(Br)cc4)o3)C=C2c2ccccc2)cc1 [2150-0146]
- pIC50 ([1]; DTNB assay, 100 nM Lpd, 175 nM SucB, 18 nM AhpD, 100 μM NADH, 75 μM DTNB, pH 7.0, read-out: IC50): 5.38
